Results on one molecule are retold here after PubChem BioAssay AID743133 (The Scripps Research Institute Molecular Screening Center, 2013).

The assay deals with Acyl-protein thioesterase 1 (Homo sapiens) + Acyl-protein thioesterase 2 (Homo sapiens) (UniProt O75608+O95372). Briefly: reversibility of LYPLA1/LYPLA2 inhibition after gel filtration, late-stage follow-up, mechanism study for LYPLA1/LYPLA2 inhibitor project, cell lysate, HeLa lysate, fluorescence gel ABPP (AID 743133). To be noted: HeLa lysate gel-based ABPP, FP-Rh; for recovery after gel filtration: stronger effect = lower value; for inhibition: stronger effect = higher value.
Chain of Acyl-protein thioesterase 1 (Homo sapiens) + Acyl-protein thioesterase 2 (Homo sapiens) (O75608 whole entry, looked up, one chain of several): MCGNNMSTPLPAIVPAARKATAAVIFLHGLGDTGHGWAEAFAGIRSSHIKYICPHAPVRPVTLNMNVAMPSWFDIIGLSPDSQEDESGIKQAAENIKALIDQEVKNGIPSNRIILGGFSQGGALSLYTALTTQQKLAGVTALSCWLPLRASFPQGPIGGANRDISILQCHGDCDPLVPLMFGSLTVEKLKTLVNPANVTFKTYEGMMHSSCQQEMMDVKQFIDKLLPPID

For the molecule `O=C(ON1C(=O)C2CN(C(=O)N3CCOCC3)CCN2C1=O)N1CCC(CCc2ccc(Cl)cc2)CC1` (stereo unspecified), the recovery after gel filtration was 0% (at 0.2 µM) and 0% (at 1 µM). For the same molecule, the inhibition (in general, the change of the read-out against control, counted positive when it falls) came out at 85% (at 0.2 µM, post-gel filtration inhibition); 85% (at 0.2 µM, pre-gel filtration inhibition); 95% (at 1 µM, post-gel filtration inhibition); 95% (at 1 µM, pre-gel filtration inhibition).
